Results on 2 compounds are retold here after patent publication US12590108B2, “Boracic acid compound” (Phaeno Therapeutics Co., Ltd, priority 2020, dated 2026).

Read-outs that look alike come from different tables or passages of the source.

Broadly, the MIC is the lowest concentration found to suppress growth. By AUC(0-t) is commonly meant exposure summed from dosing to a finite time, without extrapolation to infinity. A low value points to low exposure. The half-life is the time needed for the level to fall by half in the phase considered. Lower therefore signals fast loss. By Cmax is commonly meant the highest concentration seen after dosing. The term Tmax denotes the time at which the peak concentration occurs. In general, bioavailability refers to dose-corrected exposure relative to a reference, in per cent. A lower bioavailability goes with little systemic uptake.

In data set [1] the test system is Klebsiella pneumoniae ATCC BAA-2470 (NDM-1). Description: MIC shift, liquid microdilution, meropenem fixed at 4 μg/mL. It is filed as cell-based. Conditions: K. pneumoniae ATCC BAA-2470, NDM-1. The protocol: (§1) The test compound was tested for minimum inhibitory concentration against three strains of Klebsiella pneumoniae ATCC BAA-1705 (KPC-2), ATCC BAA-2470 (NDM-1), and ARLG-1196 (CTM-1 group, SHV, NDM, TEM), and one strain of Escherichia coli ARLG-2829 (NDM-5, OXA-1). According to the requirements of the Institute of Clinical And Laboratory Standard (CLSI), the minimum inhibitory concentration (MIC) of each drug combination was determined by liquid microdilution method under the premise of fixing the concentration of meropenem at 4 μg/mL.
(§2) Preparation of compound mother plate: On the day of the experiment, the compound to be tested (the final concentration was 0.3125 to 20 μg/mL) and meropenem (the final concentration ranged from 1 to 64 μg/mL) were dissolved in a corresponding solvent (sterile ddH2O or DMSO) to form 100× mother liquors with the highest test concentration, and the compound to be tested and meropenem were then subjected to 2-fold series gradient dilution in a V-bottom 96-well plate to obtain 100× working solutions with the final concentration.
(§3) Preparation of inoculation solution: Fresh bacterial clones were picked from an overnight Mueller Hinton II Agar medium (MHA, Cat. No. 211438, BD BBLTM) plate, suspended in sterilized physiological saline, and adjusted to a concentration of 1×10^8 CFU/mL, and the suspension was further diluted to 5-10^5 CFU/mL with Cation-Adjusted Mueller Hinton II Broth (MHB, Catalog #212332, BD BBLTM).
(§4) Detection of minimum inhibitory concentration (MIC): 1 μL of the compound to be tested and the meropenem working solution were transferred to the corresponding wells to be tested in a round-bottomed 96-well plate (Catalog #3788, Corning), and 98 μL of the inoculation solution was added to the round-bottomed 96-well plate containing drugs, which was an MIC test plate; and after the plate was inverted and cultured at 37° C. for 20-24 h, the MIC value was read, and the minimum inhibitory concentration for inhibiting bacterial growth was defined as MIC.
Background: In broth dilution the organism is exposed to a series of concentrations in liquid medium.

The test system of data set [2] is Escherichia coli ARLG-2829 (NDM-5, OXA-1). The data set is described as above. It is filed as cell-based. The procedure: as §1, §2, §3, §4
The test system of data set [3] is Klebsiella pneumoniae ARLG-1196 (CTM-1 group, SHV, NDM, TEM). The description is as above. It is filed as cell-based. The procedure:
as §1, §2, §3, §4

Data set [4] relates to Klebsiella pneumoniae ATCC BAA-1705 (KPC-2). Described as above. It is filed as cell-based. The settings on record: K. pneumoniae ATCC BAA-1705, KPC-2. The protocol: as §1, §2, §3, §4
Data set [5] can be described thus: Pharmacokinetics of the compound in rats (intravenous and oral). It is filed as in vivo. Conditions: male, SD, plasma, rat; for Vd: read-out: Vdss. The protocol: The pharmacokinetic characteristics of the compound in rodents after intravenous injection and oral administration were tested by standard protocol. Specifically, the fasting SD male rats in the experiment were given the candidate compounds by intravenous injection and oral administration. Both oral preparation and intravenous preparation were prepared into 10 mg/mL or 30 mg/mL clear solutions with physiological saline and were administered by intravenous bolus or gavage for 5 minutes. Plasma samples were collected and analyzed by LC-MS/MS method, and pharmacokinetic parameters were calculated.

The subject of data set [6] is Klebsiella pneumoniae NCTC 13439 (VIM). Description: MIC shift, liquid microdilution, test compound fixed at 8 μg/mL. Conditions: NCTC13439, meropenem alone, K. pneumoniae NCTC 13439. It is filed as cell-based. The protocol: as §2, §3, §4
(§5) The test compound was tested for minimum inhibitory concentration against 5 strains of Klebsiella pneumoniae ATCC BAA-1705 (KPC-2), ATCC BAA-2470 (NDM-1), ARLG-1196 (CTM-1 group, SHA NDM, TEM), NCTC 13440 (VIM-1), and NCTC 13439 (VIM), and one strain of Escherichia coli ARLG-2829 (NDM-5, OXA-1). According to the requirements of the Institute of Clinical And Laboratory Standard (CLSI), the minimum inhibitory concentration (MIC) of each drug combination was determined by liquid microdilution method under the premise of fixing the concentration of the compound to be tested at 8 μg/mL. The test method was the same as above, and the concentration of meropenem ranged from 0.125 to 8 μg/mL.

The subject of data set [7] is Klebsiella pneumoniae ATCC BAA-2470 (NDM-1). The description is as above. It is filed as cell-based. The settings on record: ATCCBAA2470. The procedure: as §2, §3, §4, §5
Data set [8] relates to Escherichia coli ARLG-2829 (NDM-5, OXA-1). Described as above. It is filed as cell-based. The procedure: as §2, §3, §4, §5
Data set [9] has as its system Klebsiella pneumoniae NCTC 13440 (VIM-1). The description is as above. It is filed as cell-based. The settings on record: NCTC13440, meropenem alone, K. pneumoniae NCTC 13440. The protocol: as §2, §3, §4, §5
The test system of data set [10] is Klebsiella pneumoniae ATCC BAA-1705 (KPC-2). Described as above. It is filed as cell-based. Conditions: ATCCBAA1705, meropenem alone, K. pneumoniae ATCC BAA-1705. The protocol: as §2, §3, §4, §5
For data set [11], the system named is Klebsiella pneumoniae ARLG-1196 (CTM-1 group, SHA NDM, TEM). Described as above. It is filed as cell-based. Conditions: meropenem alone, K. pneumoniae ARLG-1196. The procedure: as §2, §3, §4, §5
[12] abbreviates: compound + meropenem fixed at 4 μg/mL.
The mark [13] stands for this setting: 100 mg/kg, intravenous bolus 100 mpk.
The mark [14] stands for this setting: 300 mg/kg, intravenous bolus 300 mpk.

For the compound `CCOc1ccc2c(c1C(=O)O)O[B-](O)(O)CO2` [Compound 15], the MIC in data set [1] (setting [12]) is 0.625 µg/mL. Moreover, in data set [2] (compound + meropenem fixed at 4 μg/mL, E. coli ARLG-2829 (urine clinical isolate), NDM-5, OXA-1), the MIC was found to be 1.25 µg/mL. For the same compound, the MIC in data set [3] (compound + meropenem fixed at 4 μg/mL, K. pneumoniae ARLG-1196, CTM-1 and isoforms thereof, SHV, NDM, TEM) was found to be 0.625 µg/mL. In addition, the MIC in [4] (setting [12]) was not above 0.3125 µg/mL. In [5] (setting [13]), this compound gave an AUC(0-t) of 549 µg·h/mL, a C0 of 580 µg/mL, a clearance of 3.02 mL/min/kg and a half-life of 3.9 h. Further, the Vd in data set [5] (setting [13]) is 0.583 L/kg. Also, in [5] (100 mg/kg, oral 100 mpk), the AUC(0-t) came out at 278 µg·h/mL, the Cmax was found to be 35.2 µg/mL, the Tmax stood at 2 h and the half-life was 4.99 h. This compound also gave a bioavailability in data set [5] (100 mg/kg, oral 100 mpk, AUC0-inf (100 mpk PO)/AUC0-inf (100 mpk IV)) of 52.2%. Moreover, in data set [5] (setting [14]), the AUC(0-t) is 1160 µg·h/mL, the C0 turned out to be 1390 µg/mL, the clearance was determined as 4.29 mL/min/kg and the half-life was 4.56 h. Also, in data set [5] (setting [14]), the Vd stood at 0.96 L/kg.

As for `C[C@@H](O)[C@H]1C(=O)N2C(C(=O)O)=C(S[C@@H]3CN[C@H](C(=O)N(C)C)C3)[C@H](C)[C@H]12` [Meropenem, meropenem, reference compound], the MIC in [6] was found to be 4 µg/mL; in data set [7] it was 128 µg/mL; in [8] it was 128 µg/mL; in data set [9], 16 µg/mL; in data set [10] it was 32 µg/mL; in data set [11], 64 µg/mL. Further, the MIC in [1] (Klebsiella pneumoniae, ATCCBAA2470, meropenem alone, read-out: MIC) was 64 µg/mL; in [2] (Escherichia coli, meropenem alone, E. coli ARLG-2829, read-out: MIC), more than 64 µg/mL; in data set [3] (Klebsiella pneumoniae, meropenem alone, K. pneumoniae ARLG-1196, read-out: MIC), 64 µg/mL; in [4] (Klebsiella pneumoniae, ATCCBAA1705, meropenem alone, read-out: MIC), 32 µg/mL.
